Reference: PMC11823630, “In vitro potentiation of tetracyclines in Pseudomonas aeruginosa by RW01, a new cyclic peptide” (Antimicrobial Agents and Chemotherapy, 2024)
≈ marks a conversion by molar mass, not a printed value. Where two headings read alike, the source gives them in different places.

Columns and labels:
[1] = test system: P. aeruginosa 125A; experiment: MIC, CLSI broth microdilution in BD Phoenix AST Broth; assay type: cell-based, Pseudomonas aeruginosa; conditions: strain 125A
[2] = test system: P. aeruginosa 125B; experiment: as above; assay type: cell-based, Pseudomonas aeruginosa; conditions: strain 125B
[3] = test system: P. aeruginosa 41A; experiment: as above; assay type: cell-based, Pseudomonas aeruginosa; conditions: strain 41A
[4] = test system: P. aeruginosa 41B; experiment: as above; assay type: cell-based, Pseudomonas aeruginosa; conditions: strain 41B
[5] = test system: P. aeruginosa PAO1; experiment: as above; assay type: cell-based, Pseudomonas aeruginosa; conditions: for MIC: Pseudomonas aeruginosa
[6] = test system: P. aeruginosa PAOUW; experiment: as above; assay type: cell-based, Pseudomonas aeruginosa; conditions: strain PAOUW; for MIC: agent alone, 37°C, 18–22 h, three biological replicates
[7] = test system: P. aeruginosa PAOUW∆oprF; experiment: as above; assay type: cell-based, Pseudomonas aeruginosa
[8] = test system: P. aeruginosa PAOΔmexR; experiment: as above; assay type: cell-based, Pseudomonas aeruginosa; conditions: strain PAOΔmexR
[9] = test system: P. aeruginosa PAOΔmexZ; experiment: as above; assay type: cell-based, Pseudomonas aeruginosa; conditions: strain PAOΔmexZ; for MIC: agent alone, 37°C, 18–22 h, three biological replicates
[10] = test system: P. aeruginosa PAOΔoprM; experiment: as above; assay type: cell-based, Pseudomonas aeruginosa
[11] = test system: P. aeruginosa PAO1; experiment: Checkerboard assay with RW01; assay type: cell-based, Pseudomonas aeruginosa
Method: (§1) To assess the in vitro interaction between RW01 and tetracyclines, the checkerboard assay method was performed in 96-well microtiter plates using strains PAO1 and PAOUW. In the same way as for MIC determination, BD Phoenix AST Broth (Becton Dickinson) medium was used for bacterial growth. Minocycline and tigecycline combined with RW01 were the agents selected for the assay. A column and a row of wells in the checkerboard plate were reserved for controls of each antimicrobial individually to ensure the proper concentration of the agents. Positive and negative controls were also included. Wells in rows contained serial dilutions of RW01 starting from 512 mg/L, while those in columns varied in concentrations of the antibiotic. Inoculum at ~5 × 10⁵ CFU/mL, antibiotic, RW01, and AST broth were added to a final volume of 200 µL. Plates were incubated at 37°C for 18–22 h under aerobic conditions. Three biological replicates were obtained. Fractional inhibitory concentration index (FICI) is defined as the summatory of fractional inhibitory concentrations (FICs) from compound A: RW01, and compound B: minocycline/tigecycline. FICs were calculated as:
(§2) FIC of RW01 (FICRW01)=MIC of RW01 in combination/MIC of RW01 alone,FIC of antibiotic (FICATB)=MIC of ATB in combination/MIC of ATB alone,FICI=FICRW01 +FICATB.
(§3) FICI was interpreted as follows: synergistic effect if FICI is ≤0.5; additive effect if 0.5 < FICI ≤ 1.0; indifferent effect if 1.0 < FICI ≤ 2.0; and finally, antagonistic effect if FICI is >2.0. The average FICI considering the antibiotic MIC (no growth in any of the replicates) at different concentrations of RW01 was calculated ([28]).

[12] = test system: P. aeruginosa PAOUW; experiment: Checkerboard assay with RW01; assay type: cell-based, Pseudomonas aeruginosa
Method: as §1, §2, §3

[13] = test system: P. aeruginosa PAO1, WT; experiment: MIC, E-test on MHA; assay type: cell-based; conditions: Pseudomonas aeruginosa, PAO1, read-out: MIC, E-test
[14] = test system: PAO1 mutant MIN4_RW01_2, pmrB(F124S); experiment: MIC, E-test on MHA; assay type: cell-based; conditions: Pseudomonas aeruginosa, PAO1, read-out: MIC, E-test
[15] = test system: PAO1 mutant MIN4_RW01_4, pmrB(Y98N); experiment: MIC, E-test on MHA; assay type: cell-based; conditions: Pseudomonas aeruginosa, PAO1, read-out: MIC, E-test
[16] = test system: PAO1 mutant MIN8_3, pilZ(nt18InsT); experiment: MIC, E-test on MHA; assay type: cell-based; conditions: Pseudomonas aeruginosa, PAO1, read-out: MIC, E-test
[17] = test system: PAO1 mutant MIN8_4, pilZ(nt18InsT); experiment: MIC, E-test on MHA; assay type: cell-based; conditions: Pseudomonas aeruginosa, PAO1, read-out: MIC, E-test
[18] = test system: PAO1 mutant MIN16_3, nfxB(nt79∆14), pilB(N349K); experiment: MIC, E-test on MHA; assay type: cell-based; conditions: Pseudomonas aeruginosa, PAO1, read-out: MIC, E-test
[19] = test system: PAO1 mutant MIN32_1, mexR(R63H), pilB(N349K), PA0646(V316G); experiment: MIC, E-test on MHA; assay type: cell-based; conditions: Pseudomonas aeruginosa, PAO1, read-out: MIC, E-test
[20] = Pseudomonas aeruginosa, agent alone, 37°C, 18–22 h, three biological replicates
[21] = MIC of the antibiotic with fixed 100 mg/L RW01
[22] = antibiotic MIC alone vs with RW01 100 mg/L
[23] = antibiotic with RW01 at 100 mg/L
[24] = strain PAO1, antibiotic with RW01 at 100 mg/L
[25] = strain PAOUWΔoprF (printed PAOΔoprF), antibiotic with RW01 at 100 mg/L
[26] = strain PAOΔoprM, antibiotic with RW01 at 100 mg/L
[27] = antibiotic combined with RW01, checkerboard, AST broth, 37°C, 18–22 h, three biological replicates

With `CN(C)c1cc(NC(=O)CNC(C)(C)C)c(O)c2c1C[C@H]1C[C@H]3[C@H](N(C)C)C(O)=C(C(N)=O)C(=O)[C@@]3(O)C(O)=C1C2=O` [Tigecycline, tigecycline] the MIC [1, 20] was 8 µg/mL, the “Antibiotic MIC + RW01 100 mg/L” value [1, 21] was 1 µg/mL and the “Potentiation (fold)” value [1, 22] was 8 fold. The FICI [1, 23] was 0.320, the FICI-determined effect [1, 23] was “Synergy (synergistic effect if FICI is ≤0.5)” and the MIC [2, 20] was 8 µg/mL. For the same compound, the “Antibiotic MIC + RW01 100 mg/L” value [2, 21] was 1 µg/mL, the “Potentiation (fold)” value [2, 22] was 8 fold and the FICI [2, 23] was 0.320. The FICI-determined effect [2, 23] was “Synergy (synergistic effect if FICI is ≤0.5)”, the MIC [3, 20] was 8 µg/mL and the “Antibiotic MIC + RW01 100 mg/L” value [3, 21] was 2 µg/mL. For the same compound, the “Potentiation (fold)” value [3, 22] was 4 fold, the FICI [3, 23] was 0.348 and the FICI-determined effect [3, 23] was “Synergy (synergistic effect if FICI is ≤0.5)”. The MIC [4, 20] was 8 µg/mL, the “Antibiotic MIC + RW01 100 mg/L” value [4, 21] was 2 µg/mL and the “Potentiation (fold)” value [4, 22] was 4 fold. For the same compound, the FICI [4, 23] was 0.348, the FICI-determined effect [4, 23] was “Synergy (synergistic effect if FICI is ≤0.5)” and the MIC ([5]; PAO1) was 8 µg/mL. The MIC ([5]; PAO1, strain PAO1, agent alone, 37°C, 18–22 h, three biological replicates, read-out: MIC) was 2 µg/mL, the “Antibiotic MIC + RW01 100 mg/L” value ([5]; strain PAO1, MIC of the antibiotic with fixed 100 mg/L RW01) was 2 µg/mL and the “Potentiation (fold)” value ([5]; strain PAO1, antibiotic MIC alone vs with RW01 100 mg/L) was 4 fold. For the same compound, the FICI [5, 24] was 0.445, the FICI-determined effect [5, 24] was “Synergy (synergistic effect if FICI is ≤0.5)” and the MIC ([6]; Pseudomonas aeruginosa, read-out: MIC) was 8 µg/mL. For the same compound, the “Antibiotic MIC + RW01 100 mg/L” value [6, 21] was 1 µg/mL, the MIC [6] was 4 µg/mL and the “Potentiation (fold)” value [6, 22] was 4 fold. The FICI [6, 23] was 0.348, the FICI-determined effect [6, 23] was “Synergy (synergistic effect if FICI is ≤0.5)” and the “Potentiation (fold)” value ([7]; strain PAOUWΔoprF (printed PAOΔoprF), antibiotic MIC alone vs with RW01 100 mg/L) was 8 fold. For the same compound, the FICI [7, 25] was 0.223, the FICI-determined effect [7, 25] was “Synergy (synergistic effect if FICI is ≤0.5)” and the MIC ([7]; strain PAOUWΔoprF, agent alone, 37°C, 18–22 h, three biological replicates) was 16 µg/mL. The “Antibiotic MIC + RW01 100 mg/L” value [8, 21] was 1 µg/mL, the “Potentiation (fold)” value [8, 22] was 8 fold and the FICI [8, 23] was 0.223. The FICI-determined effect [8, 23] was “Synergy (synergistic effect if FICI is ≤0.5)”, the MIC ([9]; Pseudomonas aeruginosa) was 16 µg/mL and the MIC [9] was 8 µg/mL. For the same compound, the “Potentiation (fold)” value [9, 22] was 8 fold, the FICI [9, 23] was 0.223 and the FICI-determined effect [9, 23] was “Synergy (synergistic effect if FICI is ≤0.5)”. For the same compound, the MIC ([10]; Pseudomonas aeruginosa) was 1 µg/mL, the “Antibiotic MIC + RW01 100 mg/L” value ([10]; strain PAOΔoprM, MIC of the antibiotic with fixed 100 mg/L RW01) was 1 µg/mL and the “Potentiation (fold)” value ([10]; strain PAOΔoprM, antibiotic MIC alone vs with RW01 100 mg/L) was 1 fold. For the same compound, the FICI [10, 26] was 1.098, the FICI-determined effect [10, 26] was “Indifference (indifferent effect if 1.0 < FICI ≤ 2.0)” and the “interaction with RW01 (checkerboard)” value [11] was “additive”. For the same compound, the “average FIC Index” value [11, 27] was 0.677, the “interaction with RW01 (checkerboard)” value [12] was “synergistic” and the “average FIC Index” value [12, 27] was 0.446. It also gave an MIC [13] of 6 to 8 µg/mL (≈ 10.2 to 13.7 µM), an MIC [14] of 16 µg/mL (≈ 27.3 µM) and an MIC [15] of 32 µg/mL (≈ 54.6 µM). The MIC [16] was 16 µg/mL (≈ 27.3 µM), the MIC [17] was 32 µg/mL (≈ 54.6 µM) and the MIC [18] was 48 µg/mL (≈ 82 µM). The MIC [19] was 24 µg/mL (≈ 41 µM).
